Data on 4 compounds can be found in patent publication US6962923B2, “Pyrazole compositions” (Pfizer Inc., priority 1999, dated 2005).

Structures are written as SMILES.

For orientation: melting point means the temperature of the solid-liquid transition.

For series [1] the following is noted: in man; cited from earlier work.
The conditions of series [2]: hypertensive patients; cited from earlier work.
Series [3] concerns neointimal formation. Particulars: cited from earlier work.

For the compound `CCCC[C@@H](NC(=O)[C@@H](Cc1cn(C(=O)OC)c2ccccc12)NC(=O)[C@H](CC(C)(C)C)NC(=O)N1[C@H](C)CCC[C@@H]1C)C(=O)O` [BQ-788], the peripheral resistance entry in series [1] is reported as “increase peripheral resistance”.

On to `COc1ccccc1Oc1c(NS(=O)(=O)c2ccc(C(C)(C)C)cc2)nc(-c2ncccn2)nc1OCCO` [Bosentan], for which the blood pressure result in series [2] is “decreased blood pressure”.

Turning to `COc1ccccc1Oc1c(OC)nn(C)c1NS(=O)(=O)c1ccc(C(C)(C)C)cc1` [Example 107, 4-(tert-Butyl)-N-[3-methoxy-4-(2-methoxyphenoxy)-1-methyl-1H-pyrazol-5-yl]benzenesulfonamide], the melting point was determined as 187.6 °C.

On to `CCCOc1ccc2c(c1)[C@@H](c1ccc(OC)cc1OCC(=O)O)[C@H](C(=O)O)[C@H]2c1ccc2c(c1)OCO2` [SB-209670], for which the “reduction in neointimal formation relative to control animals” value in series [3] was 50%.
